Reference: patent US20240148895A1, “ANTIBODY-DRUG CONJUGATE” (Eisai R&D Management Co., Ltd., priority 2022, published 2024)

How the values were obtained:
[1] = molecular target: T1, BRD4(BD1+BD2) protein (Homo sapiens, UniProt O60885); experiment: BRD4 binding inhibition assay (TR-FRET); settings: BRD4(BD1+BD2) TR-FRET Assay Kit, reaction 2 hours at room temperature; read-out: IC50 (concentration necessary for 50% inhibition of BRD4 binding activity)
T1 construct: 5 μL of BRD4(BD1+BD2) protein solution prepared to 3.6 ng/μL; purchased BPS Bioscience Inc. 32612
Description: This assay measures binding inhibition activity of the test substance on the bromodomain of BRD4 protein.
BRD4 binding inhibition activity assay was carried out using a BRD4(BD1+BD2)TR-FRET Assay Kit (BPS Bioscience Inc. Catalog #32612), according to the attached instructions. In a flat-bottom 384-well white plate (Greiner 781080) there was added 8 μL of Tb-labeled donor/dye-labeled acceptor solution diluted 160-fold with 1×BRD TR-FRET Assay Buffer1, with 5 μL of BET Bromodomain Ligand diluted 40-fold with 1×BRD TR-FRET Assay Buffer1 in the test substance measuring wells and the Positive Control wells, and 5 μL of Non-acetylated Ligand1 diluted 40-fold with 1×BRD TR-FRET Assay Buffer1 in the Negative Control wells. After adding 2 μL of test substance diluted with 1×BRD TR-FRET Assay Buffer1 to the test substance measuring wells, and 2 μL of Dimethyl Sulfoxide solution diluted 100-fold with 1×BRD TR-FRET Assay Buffer1 to the Positive Control wells and Negative Control wells, 5 μL of BRD4(BD1+BD2) protein solution prepared to 3.6 ng/μL with 1×BRD TR-FRET Assay Buffer1 was added and reaction was conducted for 2 hours at room temperature. The fluorescence intensity was measured at 620 nm and 665 nm with irradiation of 340 nm excitation light into each well, using an Envision™ (Perkin-Elmer). The ratio of fluorescence intensity at […] with respect to fluorescence intensity at 620 nm for each well was recorded as the TR-FRET ratio, and the TR-FRET ratio in the presence of the test substance was calculated with the Positive Control well value as 100%, subtracting the Negative Control well value. The concentration of test substance necessary for 50% inhibition of BRD4 binding activity (IC50) was calculated from the TR-FRET ratio, and shown in Table 1.

[2] = molecular target: HiBiT tagged BRD4-BD1 protein in HEK293/LgBiT/hPGK/HiBiT-BRD4-BD1 cells (Homo sapiens, UniProt O60885); experiment: BET BD1 domain degradation assay; type: cell-based; design: HiBit-linker-BRD4 BD1(1-209); host or cells: HEK293 (ATCC CRL-1573) stably transduced with LgBiT and HiBiT-BRD4-BD1; settings: concentration for 50% reduction in HiBiT-BRD4-BD1 protein level, 3 hours, read-out: Absolute DC50—3 h (nM) HEK293_HiBiT-BRD4-BD1
Description: HEK293/LgBiT/hPGK/HiBiT-BRD4-BD1 cells were established by introducing LgBiT and HiBiT-BRD4-BD1 into the human fetus renal cell line HEK293 (ATCC Number CRL-1573). LgBiT was introduced using lentivirus vector LV[Exp]-Bsd-EFS>{LgBiT}, and HiBiT-BRD4-BD1 was introduced with lentivirus vector LV[Exp]-Puro-hPGK>{HiBit-linker-BRD4 BD1(1-209)}. The vector plasmids LV[Exp]-Bsd-EFS>{LgBiT} and LV[Exp]-Puro-hPGK>{HiBit-linker-BRD4_BD1(1-209)} were constructed by VectorBuilder Co. The lentivirus was produced using a Mission Lentivirus Packaging Mix (Sigma) according to the manufacturer's protocol. Viral infection and drug selection of infected cells were carried out by the following published method (Akagi T. et. al, PNAS 2003; 100:13567-72). The cells were maintenance cultured in a 5% CO2 incubator (37° C.), using culture medium. A 45 μL portion of cell suspension of HEK293/LgBiT/hPGK/HiBiT-BRD4-BD1 cells prepared to 6.7×10^4 cells/mL using culture medium was added to each well of a collagen I-coated 384-well plate (Falcon 356667), and the cells were cultured overnight in a 5% CO2 incubator (37° C.). On the following day, 5 μL of test substance diluted with RPMI-1640 (FujiFilm-Wako Pure Chemical Industries) containing 10% fetal bovine serum (FBS: SIGMA 173012) and penicillin/streptomycin (FujiFilm-Wako Pure Chemical Industries) was added to each well, and culturing was continued for 3 hours in a 5% CO2 incubator (37° C.). The luminous intensity was measured using a Nono-Glo HiBiT Lytic Detection System (Promega), and the intracellular HiBiT tagged BRD4-BD1 protein level was calculated. After culturing, 25 μL of measuring reagent was added to each well and the plate contents were mixed for 5 minutes using a plate mixer. The plate was stationed for 10 minutes at room temperature while shielded from light, and then the luminous intensity was measured with an ENVISION′ (Perkin-Elmer). The luminescence value of the wells with addition of test substance was determined as a relative value, with 100% as the luminescence value of the wells with cells but without addition of the test substance, and 0% as the luminescence value of the wells without cells. A plot of test substance concentration against luminescence value % approximated a 4-parameter logistic curve, and the test substance concentration necessary for 50% reduction in protein level (Absolute DC50) was calculated and is shown in Table 4.

[3] = tested on: AsPC-1/Cas9 cell line; experiment: AsPC-1/Cas9 growth inhibition assay; type: cell-based, human; settings: Homo sapiens, ASPC1, 120 h, AsPC-1/Cas9 cells, 5 days culture, CellTiter Glo 2.0; read-out: Absolute IC50—Day 5 (nM) AsPC-1 Cas9
Description: The human pancreatic cancer cell line AsPC-1 (ATCC Number CRL1682) was infected with Edit-R Lentiviral hCMV-Blast-Cas9 Nuclease Particle (Dharmacon, VCAS10124) in the presence of 8 μg/ml of Hexadimethrine bromide (Sigma, H9268), and after 24 hours it was exposed to 10 μg/ml of Blastcidin S (Thermo, A11139) to remove the uninfected cells, thereby establishing an AsPC-1/Cas9 cell line. The cells were maintenance cultured in a 5% CO2 incubator (37° C.) using RPMI-1640 (FujiFilm-Wako Pure Chemical Industries) containing 10% fetal bovine serum (FBS: SIGMA 173012) and penicillin/streptomycin (FujiFilm-Wako Pure Chemical Industries) (hereunder referred to simply as “culture medium”). After adding 45 μL of AsPC-1/Cas9 cell suspension prepared to 2.0×10^4 cells/mL using culture medium into each well of a 384-well plate (Greiner 781091), the cells were cultured overnight in a 5% CO2 incubator (37° C.). On the following day, 5 μL of the test substance diluted with culture medium was added to each well, and culturing was continued for 5 days in a 5% CO2 incubator (37° C.). Next, 25 μL of CellTiter Glo™ 2.0 (Promega) was added to each well, and the plate contents were mixed for 5 minutes using a plate mixer. The plate was stationed for 10 minutes at room temperature while shielded from light, and then the luminous intensity was measured with an ENVISION™ (Perkin-Elmer). The luminescence value of the wells with addition of test substance was determined as a relative value, with 100% as the luminescence value of the wells with cells but without addition of the test substance, and 0% as the luminescence value of the wells without cells. A plot of test substance concentration against luminescence value % approximated a 4-parameter logistic curve, and the test substance concentration necessary for 50% inhibition of cell growth (Absolute IC50) was calculated, and is shown in Table 4.

`Cc1cc(-c2ccc3nc(N)nc(C(CO)(OC4CC4)c4ccccc4)c3c2)cn(C)c1=O` (centres unmarked) [Example 2, 5-(2-Amino-4-(1-cyclopropoxy-2-hydroxy-1-phenylethyl)quinazolin-6-yl)-1,3-dimethylpyridin-2(1H)-one] gave an IC50 [1] of 26 nM.

`COc1ccc(C(=O)NC2(C)CCN(C3CCN(c4nc(C(CO)(CC(C)C)c5cccs5)c5cc(-c6cn(C)c(=O)c7[nH]ccc67)ccc5n4)CC3)CC2)cc1N1CCC(=O)NC1=O` (centres unmarked) [Example 125, 3-(2,4-Dioxotetrahydropyrimidine-1(2H)-yl)-N-(1′-(4-(1-hydroxy-4-methyl-2-(thiophen-2-yl)pentan-2-yl)-6-(6-methyl-7-oxo-6,7-dihydro-1H-pyrrolo[2,3-c]pyridin-4-yl)quinazolin-2-yl)-4-methyl-[1,4′-bipiperidin]-4-yl)-4-methoxybenzamide] gave a DC50 [2] of 0.19 nM and an IC50 [3] of 0.2 nM.

`CCCC(CO)(CCC)c1nc(N2CCC(OC3CCN(C(=O)c4ccc(OC)c(N5CCC(=O)NC5=O)c4)CC3)CC2)nc2ccc(-c3cn(C)c(=O)cc3OC)cc12` [Example 126, 1-(5-(4-((1-(4-(4-(Hydroxymethyl)heptan-4-yl)-6-(4-methoxy-1-methyl-6-oxo-1,6-dihydropyridin-3-yl)quinazolin-2-yl)piperidin-4-yl)oxy)piperidine-1-carbonyl)-2-methoxyphenyl)dihydropyrimidine-2,4(1H,3H)-dione] showed a DC50 [2] of 0.05 nM and an IC50 [3] of 0.084 nM.

With `Cc1ccc(C(=O)N2C[C@H](C)N(C3CCN(c4nc(C(CO)(OC5CC5)c5cccc(O)c5)c5cc(-c6cn(C)c(=O)c7[nH]ccc67)ccc5n4)CC3)C[C@H]2C)cc1N1CCC(=O)NC1=O` (stereo partly drawn) [Example 127, 1-(5-((2R,5S)-4-(1-(4-(1-Cyclopropoxy-2-hydroxy-1-(3-hydroxyphenyl)ethyl)-6-(6-methyl-7-oxo-6,7-dihydro-1H-pyrrolo[2,3-c]pyridin-4-yl)quinazolin-2-yl)piperidin-4-yl)-2,5-dimethylpiperazine-1-carbonyl)-2-methylphenyl)dihydropyrimidine-2,4-(1H,3H)-dione] the DC50 [2] was 0.6 nM and the IC50 [3] was 0.17 nM.

For `COc1ccc(C(=O)NC2(C)CCN(C3CCN(c4nc(C(CO)(OC5CC5)c5cccc6ccccc56)c5cc(-c6cn(C)c(=O)c7[nH]ccc67)ccc5n4)CC3)CC2)cc1N1CCC(=O)NC1=O` (centres unmarked) [Example 128, N-(1′-(4-(1-Cyclopropoxy-2-hydroxy-1-(naphthalen-1-yl)ethyl)-6-(6-methyl-7-oxo-6,7-dihydro-1H-pyrrolo[2,3-c]pyridin-4-yl)quinazolin-2-yl)-4-methyl-[1,4′-bipiperidin]-4-yl)-3-(2,4-dioxotetrahydropyrimidine-1(2H)-yl)-4-methoxybenzamide], the DC50 [2] was 0.25 nM and the IC50 [3] was 0.32 nM.

With `COc1ccc(-n2cc(CN3CCN(CC4CCN(c5nc(C(CO)(OC6CC6)c6ccccc6)c6cc(-c7cc(C)c(=O)n(C)c7)ccc6n5)CC4)CC3)nn2)cc1N1CCC(=O)NC1=O` (centres unmarked) [Example 130, 1-(5-(4-((4-((1-(4-(1-Cyclopropoxy-2-hydroxy-1-phenylethyl)-6-(1,5-dimethyl-6-oxo-1,6-dihydropyridin-3-yl)quinazolin-2-yl)piperidin-4-yl)methyl)piperazin-1-yl)methyl)-1H-1,2,3-triazol-1-yl)-2-methoxyphenyl)-dihydropyrimidine-2,4(1H,3H)-dione] the DC50 [2] was 0.19 nM and the IC50 [3] was 0.98 nM.

Work on `COc1ccc(C#CCNC2(C)CCN(C3CCN(c4nc([C@@](COCNC(=O)[C@H](CC(N)=O)NC(C)=O)(OC5CC5)c5ccccc5)c5cc(-c6cn(C)c(=O)c7[nH]ccc67)ccc5n4)CC3)CC2)cc1N1CCC(=O)NC1=O` [Example 131] yielded a DC50 [2] of 11 nM and an IC50 [3] of 4.5 nM.

`COc1ccc(C#CCNC2(C)CCN(C3CCN(c4nc([C@@](CO)(OC5CC5)c5ccccc5)c5cc(-c6cn(C)c(=O)c7[nH]ccc67)ccc5n4)CC3)CC2)cc1N1CCC(=O)N(CNC(=O)[C@H](CC(=O)O)NC(C)=O)C1=O` [Example 138, (S)-3-Acetamide-4-(((3-(5-(3-((1′-(4-((S)-1-cyclopropoxy-2-hydroxy-1-phenylethyl)-6-(6-methyl-7-oxo-6,7-dihydro-1H-pyrrolo[2,3-c]pyridin-4-yl)quinazolin-2-yl)-4-methyl-[1,4′-bipiperidin]-4-yl)amino)prop-1-yn-1-yl)-2-methoxyphenyl)-2,6-dioxotetrahydropyrimidine-1(2H)-yl)methyl)amino)-4-oxobutanoic acid] was tested, and the DC50 [2] was greater than 100 nM and the IC50 [3] was 41 nM.

Work on `COc1ccc(C#CCNC2(C)CCN(C3CCN(c4nc(C(CO)(OC5CC5)c5ccccc5)c5cc(-c6cn(C)c(=O)c7[nH]ccc67)ccc5n4)CC3)CC2)cc1N1CCC(=O)NC1=O` (centres unmarked) [Example 144, 1-(5-(3-((1′-(4-(1-Cyclopropoxy-2-hydroxy-1-phenylethyl)-6-(6-methyl-7-oxo-6,7-dihydro-1H-pyrrolo[2,3-c]pyridin-4-yl)quinazolin-2-yl)-4-methyl-[1,4′-bipiperidin]-4-yl)amino)prop-1-yn-1-yl)-2-methoxyphenyl)dihydropyrimidine-2,4(1H,3H)-dione] yielded a DC50 [2] of 0.11 nM and an IC50 [3] of 0.13 nM.
